Measurements taken from patent publication US20210395254A1, “NEW TETRAHYDROPYRIMIDODIAZEPIN AND TETRAHYDROPYRIDODIAZEPIN COMPOUNDS FOR TREATING PAIN AND PAIN RELATED CONDITIONS” (ESTEVE PHARMACEUTICALS, S.A., priority 2018, published 2021).

What was measured:
[1] = target: human α2δ-1 subunit of Cav2.2 calcium channel (Homo sapiens, UniProt P54289); assay: Binding assay to human α2δ-1 subunit of Cav2.2 calcium channel ([3H]-Gabapentin); details: [3H]-Gabapentin 15 nM, human α2δ-1 enriched membranes
Sequence of human α2δ-1 subunit of Cav2.2 calcium channel (P54289 25-1103): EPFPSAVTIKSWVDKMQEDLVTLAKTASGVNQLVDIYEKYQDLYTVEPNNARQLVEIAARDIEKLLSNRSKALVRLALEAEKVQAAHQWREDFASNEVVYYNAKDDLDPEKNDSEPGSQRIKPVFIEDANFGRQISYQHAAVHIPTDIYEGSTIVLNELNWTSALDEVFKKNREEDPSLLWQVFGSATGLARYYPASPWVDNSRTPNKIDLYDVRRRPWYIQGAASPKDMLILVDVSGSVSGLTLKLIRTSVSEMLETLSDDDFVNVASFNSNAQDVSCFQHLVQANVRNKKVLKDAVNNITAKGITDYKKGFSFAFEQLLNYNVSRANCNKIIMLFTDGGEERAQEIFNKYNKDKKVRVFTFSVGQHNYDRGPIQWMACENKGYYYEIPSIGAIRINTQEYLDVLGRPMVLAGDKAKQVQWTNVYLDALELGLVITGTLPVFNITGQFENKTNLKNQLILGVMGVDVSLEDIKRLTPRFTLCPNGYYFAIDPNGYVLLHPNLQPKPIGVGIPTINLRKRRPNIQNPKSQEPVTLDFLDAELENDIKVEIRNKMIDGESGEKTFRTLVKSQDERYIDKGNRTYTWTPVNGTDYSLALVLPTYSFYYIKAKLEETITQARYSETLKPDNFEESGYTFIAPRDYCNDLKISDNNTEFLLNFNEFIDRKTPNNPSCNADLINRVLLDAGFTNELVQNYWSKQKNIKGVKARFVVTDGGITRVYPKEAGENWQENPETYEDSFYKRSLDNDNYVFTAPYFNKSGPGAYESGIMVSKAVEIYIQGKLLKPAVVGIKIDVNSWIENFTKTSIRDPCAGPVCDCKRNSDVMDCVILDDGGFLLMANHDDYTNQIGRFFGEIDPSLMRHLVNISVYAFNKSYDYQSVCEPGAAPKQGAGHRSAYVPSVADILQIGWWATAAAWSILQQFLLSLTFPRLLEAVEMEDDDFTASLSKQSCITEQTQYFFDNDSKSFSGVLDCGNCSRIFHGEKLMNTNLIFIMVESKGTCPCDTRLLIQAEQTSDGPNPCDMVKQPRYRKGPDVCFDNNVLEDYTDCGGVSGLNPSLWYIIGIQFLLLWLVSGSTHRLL
Protocol: Binding assay to human α2δ-1 subunit of Cav2.2 calcium channel. Human a26-1 enriched membranes (2.5 μg) were incubated with 15 nM of radiolabeled [3H]-Gabapentin in assay buffer containing Hepes-KOH 10 mM, pH 7.4. NSB (non specific binding) was measured by adding 10 μM pregabalin. The binding of the test compound was measured at either one concentration (% inhibition at 1 or 10 μM) or five different concentrations to determine affinity values (Ki). After 60 min incubation at 27° C., binding reaction was terminated by filtering through Multiscreen GF/C (Millipore) presoaked in 0.5% polyethyleneimine in Vacuum Manifold Station, followed by 3 washes with ice-cold filtration buffer containing 50 mM Tris-HCl, pH 7.4. Filter plates were dried at 60° C. for 1 hour and 30 μl of scintillation cocktail were added to each well before radioactivity reading. Readings were performed in a Trilux 1450 Microbeta radioactive counter (Perkin Elmer).

[2] = target: human norepinephrine transporter (NET) (Homo sapiens, UniProt P23975); assay: Binding assay to human norepinephrine transporter (NET) ([3H]-Nisoxetin); details: [3H]-Nisoxetin 5 nM, human NET enriched membranes
Sequence of human norepinephrine transporter (NET) (P23975 whole entry): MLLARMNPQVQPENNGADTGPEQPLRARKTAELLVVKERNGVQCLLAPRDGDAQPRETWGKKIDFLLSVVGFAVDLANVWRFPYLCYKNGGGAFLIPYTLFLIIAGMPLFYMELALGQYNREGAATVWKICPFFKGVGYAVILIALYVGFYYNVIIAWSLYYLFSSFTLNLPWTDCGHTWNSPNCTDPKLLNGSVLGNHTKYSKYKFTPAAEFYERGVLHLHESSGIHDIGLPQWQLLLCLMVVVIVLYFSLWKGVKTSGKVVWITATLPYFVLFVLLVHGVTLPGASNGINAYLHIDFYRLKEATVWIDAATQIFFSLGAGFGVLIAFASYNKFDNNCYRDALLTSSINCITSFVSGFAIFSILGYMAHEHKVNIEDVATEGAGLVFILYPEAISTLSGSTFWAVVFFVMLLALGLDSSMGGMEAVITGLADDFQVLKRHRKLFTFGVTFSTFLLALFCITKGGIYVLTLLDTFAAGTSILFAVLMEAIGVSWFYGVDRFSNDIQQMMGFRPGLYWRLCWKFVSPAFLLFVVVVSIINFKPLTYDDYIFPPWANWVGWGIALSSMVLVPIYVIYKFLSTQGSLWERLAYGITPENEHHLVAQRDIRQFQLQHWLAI
Protocol: Binding assay to human norepinephrine transporter (NET).
Human norepinephrine transporter (NET) enriched membranes ([…]) were incubated with 5 nM of radiolabeled [3H]-Nisoxetin in assay buffer containing 50mM Tris-HCl, 120mM NaCl, 5mM KCI, pH 7.4. NSB (non specific binding) was measured by adding […] of desipramine. The binding of the test compound was measured at either one concentration (% inhibition at 1 or 10 μM) or five different concentrations to determine affinity values (Ki). After 60 min incubation at 4° C., binding reaction was terminated by filtering through Multiscreen GF/C (Millipore) presoaked in 0.5% polyethyleneimine in Vacuum Manifold Station, followed by 3 washes with ice-cold filtration buffer containing 50mM Tris-HCl, 0.9% NaCl, pH 7.4. Filter plates were dried at 60° C. for 1 hour and 30 µl of scintillation cocktail were added to each well before radioactivity reading. Readings were performed in a Trilux 1450 Microbeta radioactive counter (Perkin Elmer).

Row | Ki [1] | Ki [2] | SMILES
1 | < 100 nM | < 100 nM | CNCC[C@H](Oc1ccc(CN2CCN(C)c3nc(N)ncc3C2=O)c(Cl)c1)c1ccccc1 [Example 4, (S)-2-Amino-6-(2-chloro-4-(3-(methylamino)-1-phenylpropoxy)benzyl)-9-methyl-6,7,8,9-tetrahydro-5H-pyrimido[4,5-e][1,4]diazepin-5-one]
2 | < 100 nM | < 100 nM | CNCC[C@H](Oc1cnc(CN2CCN(C)c3nc(N)ncc3C2=O)c(F)c1)c1cccc(F)c1 [Example 7, (S)-2-Amino-6-((3-fluoro-5-(1-(3-fluorophenyl)-3-(methylamino)propoxy)pyridin-2-yl)methyl)-9-methyl-6,7,8,9-tetrahydro-5H-pyrimido[4,5-e][1,4]diazepin-5-one]
3 | < 100 nM | 100 to 500 nM | CNCC[C@H](Oc1ccc(CN2CCN(C)c3nc(N)ncc3C2=O)c(F)c1)c1ccccc1 [Example 11, (S)-2-Amino-6-(2-fluoro-4-(3-(methylamino)-1-phenylpropoxy)benzyl)-9-methyl-6,7,8,9-tetrahydro-5H-pyrimido[4,5-e][1,4]diazepin-5-one]
4 | < 100 nM | < 100 nM | CNCC[C@H](Oc1ccc(CN2CCN(C)c3ncncc3C2=O)c(C)c1)c1ccccc1 [Example 3, (S)-9-Methyl-6-(2-methyl-4-(3-(methylamino)-1-phenylpropoxy)benzyl)-6,7,8,9-tetrahydro-5H-pyrimido[4,5-e][1,4]diazepin-5-one]
5 | < 100 nM | 100 to 500 nM | CNCC[C@H](Oc1ccc(CN2CCN(C)c3ccncc3C2=O)c(F)c1)c1ccccc1 [Example 8, (S)-4-(2-Fluoro-4-(3-(methylamino)-1-phenylpropoxy)benzyI)-1-methyl-1,2,3,4-tetrahydro-5H-pyrido[4,3-e][1,4]diazepin-5-one]

Continued, compound first:

Row | SMILES | Ki [1] | Ki [2]
6 | CNCC[C@H](Oc1ccc(CN2CCN(C)c3cc(OC)ncc3C2=O)c(F)c1)c1ccccc1 [Example 12, (S)-4-(2-Fluoro-4-(3-(methylamino)-1-phenylpropoxy)benzyl)-8-methoxy-1-methyl-1,2,3,4-tetrahydro-5H-pyrido[4,3-e][1,4]diazepin-5-one] | < 100 nM | 100 to 500 nM
7 | CCNc1ncc2c(n1)N(C)CCN(Cc1ccc(O[C@@H](CCNC)c3cccc(F)c3)cc1F)C2=O [Example 14, (S)-2-(Ethylamino)-6-(2-fluoro-4-(1-(3-fluorophenyl)-3-(methylamino)propoxy)benzyl)-9-methyl-6,7,8,9-tetrahydro-5H-pyrimido[4,5-e][1,4]diazepin-5-one] | < 100 nM | 100 to 500 nM
8 | CNCC[C@H](Oc1ccc(CN2CCN(C)c3nc(OC)ncc3C2=O)c(C)c1)c1ccccc1 [Example 2, (S)-2-Methoxy-9-methyl-6-(2-methyl-4-(3-(methylamino)-1-phenylpropoxy)benzyl)-6,7,8,9-tetrahydro-5H-pyrimido[4,5-e][1,4]diazepin-5-one] | < 100 nM | < 100 nM
9 | CCNc1ncc2c(n1)N(C)CCN(Cc1ccc(O[C@@H](CCNC)c3ccccc3)cc1Cl)C2=O [Example 5, (S)-6-(2-Chloro-4-(3-(methylamino)-1-phenylpropoxy)benzyl)-2-(ethylamino)-9-methyl-6,7,8,9-tetrahydro-5H-pyrimido[4,5-e][1,4]diazepin-5-one] | < 100 nM | 100 to 500 nM
10 | CNCC[C@H](Oc1ccc(CN2CCN(C)c3nc(OC)ncc3C2=O)c(F)c1)c1ccccc1 [Example 9, (S)-6-(2-Fluoro-4-(3-(methylamino)-1-phenylpropoxy)benzyl)-2-methoxy-9-methyl-6,7,8,9-tetrahydro-5H-pyrimido[4,5-e][1,4]diazepin-5-one] | < 100 nM | 100 to 500 nM
11 | CNCC[C@H](Oc1ccc(CN2CCN(C)c3ncncc3C2=O)c(F)c1)c1ccccc1 [Example 10, (S)-6-(2-Fluoro-4-(3-(methylamino)-1-phenylpropoxy)benzyl)-9-methyl-6,7,8,9-tetrahydro-5H-pyrimido[4,5-e][1,4]diazepin-5-one] | < 100 nM | < 100 nM
12 | CCNc1ncc2c(n1)N(C)CCN(Cc1ncc(O[C@@H](CCNC)c3cccc(F)c3)cc1F)C2=O [Example 6, (S)-2-(Ethylamino)-6-((3-fluoro-5-(1-(3-fluorophenyl)-3-(methylamino)propoxy)pyridin-2-yl)methyl)-9-methyl-6,7,8,9-tetrahydro-5H-pyrimido[4,5-e][1,4]diazepin-5-one] | < 100 nM | 100 to 500 nM
13 | CNCC[C@H](Oc1cnc(CN2CCN(C)c3cc(OC)ncc3C2=O)c(F)c1)c1cccs1 [Example 15, (S)-4-((3-Fluoro-5-(3-(methylamino)-1-(thiophen-2-yl)propoxy)pyridin-2-yl)methyl)-8-methoxy-1-methyl-1,2,3,4-tetrahydro-5H-pyrido[4,3-e][1,4]diazepi n-5-one.] | < 100 nM | < 100 nM
14 | CNCC[C@H](Oc1ccc(CN2CCN(C)c3ccncc3C2=O)c(C)c1)c1ccccc1 [Example 1, (S)-1-Methyl-4-(2-methyl-4-(3-(methylamino)-1-phenylpropoxy)benzyl) -1,2,3,4-tetrahydro-5H-pyrido[4,3-e][1,4]cliazepin-5-one] | 100 to 500 nM | 100 to 500 nM
15 | CCNc1ncc2c(n1)N(C)CCN(Cc1ccc(O[C@H](CCNC)c3cccc(F)c3)cc1F)C2=O [Example 13, (R)-2-(Ethylamino)-6-(2-fluoro-4-(1-(3-fluorophenyl)-3-(methylamino)propoxy)benzyl)-9-methyl-6,7,8,9-tetrahydro-5H-pyrimido[4,5-e][1,4]diazepin-5-one] | ≥ 3000 nM | 500 to 1000 nM
